Reference: PubChem BioAssay AID256 (DTP/NCI, 2004)
Values joined by “and” are separate entries in the source; they are usually repeats but may differ in a detail not shown here. Identical values can stand only once. Inconclusive results and toxic doses are left out. How the source made its calls: active means survival T/C of 150% or more; inactive means T/C below 125% in these data.

System: CD2F1 mice, L1210 leukemia ip, survival T/C
Experiment: NCI In Vivo Anticancer Drug Screen. Data for tumor model L1210 Leukemia (intraperitoneal) in CD2F1 (CDF1) mice
Conditions: endpoint: mean survival time, higher = longer survival
Method in brief: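 Tumor-bearing mice (transplanted tumor) were split into treated and vehicle control groups, and the measured endpoint of each treated group was divided by that of its vehicle controls.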

[1] = dose: 100.0 mg/kg/injection, schedule: Q04DX003 (ip), vehicle: saline with Tween-80
[2] = dose: 200.0 mg/kg/injection, schedule: Q04DX003 (ip), vehicle: saline with Tween-80
[3] = dose: 400.0 mg/kg/injection, schedule: Q01DX009 (ip), vehicle: Klucel (hydroxypropylcellulose) (HPC)
[4] = dose: 400.0 mg/kg/injection, schedule: Q04DX003 (ip), vehicle: saline with Tween-80

Measured: T/C

CC(O)C(=O)O.CCCCOC(=O)CC(O)(CC(=O)OCCCC)C(=O)OCCCC.[Cl-].[Cl-].[NH2-].[NH2-].[Pt+4]
inactive: dose: 3.13 mg/kg/injection, schedule: Q04DX003 (ip), vehicle: Klucel (hydroxypropylcellulose) (HPC) 104 % of control and 108 % of control and 105 % of control | dose: 6.25 mg/kg/injection, schedule: Q04DX003 (ip), vehicle: Klucel (hydroxypropylcellulose) (HPC) 108 % of control and 111 % of control and 98 % of control | dose: 12.5 mg/kg/injection, schedule: Q04DX003 (ip), vehicle: Klucel (hydroxypropylcellulose) (HPC) 109 % of control [middle of 4 runs] | dose: 25.0 mg/kg/injection, schedule: Q04DX003 (ip), vehicle: Klucel (hydroxypropylcellulose) (HPC) 96 % of control and 113 % of control and 104 % of control | dose: 100.0 mg/kg/injection, schedule: Q04DX003 (ip), vehicle: Klucel (hydroxypropylcellulose) (HPC) 95 % of control | dose: 200.0 mg/kg/injection, schedule: Q04DX003 (ip), vehicle: Klucel (hydroxypropylcellulose) (HPC) 113 % of control

Cc1c(C)c(O)c(Br)c(C)c1O (tested in a mixture with another compound)
inactive: dose: 25.0 mg/kg/injection, schedule: Q04DX003 (ip), vehicle: other 100 % of control | dose: 50.0 mg/kg/injection, schedule: Q04DX003 (ip), vehicle: other 94 % of control

N#CC(C#N)=Cc1cccc(CC(O)(C(F)(F)F)C(F)(F)F)n1
inactive: [1] 105 % of control | [2] 94 % of control

Nc1ccc(-c2c(N)nc(Br)c3ccccc23)cc1
inactive: dose: 50.0 mg/kg/injection, schedule: Q04DX003 (ip), vehicle: DMSO 98 % of control | dose: 100.0 mg/kg/injection, schedule: Q04DX003 (ip), vehicle: DMSO 93 % of control | dose: 200.0 mg/kg/injection, schedule: Q04DX003 (ip), vehicle: DMSO 110 % of control | dose: 400.0 mg/kg/injection, schedule: Q04DX003 (ip), vehicle: DMSO 104 % of control

O=C(c1cccnc1)c1cn(C2OC(CO)C(O)C(O)C2O)c2ccccc12 (stereo not drawn)
inactive: dose: 12.5 mg/kg/injection, schedule: Q01DX005 (ip), vehicle: other 93 % of control | dose: 25.0 mg/kg/injection, schedule: Q01DX005 (ip), vehicle: other 97 % of control | dose: 50.0 mg/kg/injection, schedule: Q01DX005 (ip), vehicle: other 104 % of control | dose: 100.0 mg/kg/injection, schedule: Q01DX005 (ip), vehicle: other 97 % of control | dose: 200.0 mg/kg/injection, schedule: Q01DX005 (ip), vehicle: other 95 % of control

CCCC(=O)Nc1ccc(O)cc1
inactive: dose: 50.0 mg/kg/injection, schedule: Q01DX009 (ip), vehicle: Klucel (hydroxypropylcellulose) (HPC) 95 % of control | dose: 100.0 mg/kg/injection, schedule: Q01DX009 (ip), vehicle: Klucel (hydroxypropylcellulose) (HPC) 91 % of control | dose: 200.0 mg/kg/injection, schedule: Q01DX009 (ip), vehicle: Klucel (hydroxypropylcellulose) (HPC) 104 % of control | [3] 123 % of control

CCCCCCCCN(C)N=Nc1ccc(C(N)=O)cc1
inactive: dose: 79.0 mg/kg/injection, schedule: Q01DX009 (ip), vehicle: Klucel (hydroxypropylcellulose) (HPC) 104 % of control | dose: 118.0 mg/kg/injection, schedule: Q01DX009 (ip), vehicle: Klucel (hydroxypropylcellulose) (HPC) 114 % of control | dose: 175.0 mg/kg/injection, schedule: Q01DX009 (ip), vehicle: Klucel (hydroxypropylcellulose) (HPC) 117 % of control | dose: 177.0 mg/kg/injection, schedule: Q01DX009 (ip), vehicle: Klucel (hydroxypropylcellulose) (HPC) 110 % of control | dose: 266.0 mg/kg/injection, schedule: Q01DX009 (ip), vehicle: Klucel (hydroxypropylcellulose) (HPC) 122 % of control | [3] 113 % of control and 118 % of control

O=C(CNC(=O)Nc1ccc(F)cc1)NNC(=O)Nc1ccc(Cl)c([N+](=O)[O-])c1
inactive: dose: 200.0 mg/kg/injection, schedule: Q01DX009 (ip), vehicle: saline with Tween-80 92 % of control | dose: 400.0 mg/kg/injection, schedule: Q01DX009 (ip), vehicle: saline with Tween-80 88 % of control

O/N=C\c1ccc2c(c1)OCCO2
inactive: dose: 37.5 mg/kg/injection, schedule: Q01DX009 (ip), vehicle: saline 97 % of control | dose: 75.0 mg/kg/injection, schedule: Q01DX009 (ip), vehicle: saline 103 % of control | dose: 75.0 mg/kg/injection, schedule: Q04DX003 (ip), vehicle: saline 112 % of control | dose: 150.0 mg/kg/injection, schedule: Q01DX009 (ip), vehicle: saline 100 % of control | dose: 150.0 mg/kg/injection, schedule: Q04DX003 (ip), vehicle: saline 100 % of control | dose: 300.0 mg/kg/injection, schedule: Q04DX003 (ip), vehicle: saline 100 % of control

CCCC(C)C1C(=O)N(C)C(=O)N(C)C1=O (stereo not drawn)
inactive: dose: 75.0 mg/kg/injection, schedule: Q01DX001 (ip), vehicle: saline 104 % of control | dose: 150.0 mg/kg/injection, schedule: Q01DX001 (ip), vehicle: saline 103 % of control | dose: 300.0 mg/kg/injection, schedule: Q01DX001 (ip), vehicle: saline 98 % of control

CCCCCCCCC(C(=O)c1ccccc1)C(O)(C(F)(F)F)C(F)(F)F (stereo not drawn)
inactive: [1] 102 % of control | [2] 111 % of control | [4] 102 % of control

O=S(=O)(Cc1cc(-c2ccccc2)n[nH]1)c1ccccc1
inactive: dose: 100.0 mg/kg/injection, schedule: Q01DX001 (ip), vehicle: saline 96 % of control | dose: 200.0 mg/kg/injection, schedule: Q01DX001 (ip), vehicle: saline 95 % of control | dose: 400.0 mg/kg/injection, schedule: Q01DX001 (ip), vehicle: saline 98 % of control

Nc1ccccc1C(=O)C/C=C/c1ccccc1
inactive: dose: 100.0 mg/kg/injection, schedule: Q01DX001 (ip), vehicle: saline with Tween-80 95 % of control | dose: 200.0 mg/kg/injection, schedule: Q01DX001 (ip), vehicle: saline with Tween-80 91 % of control | dose: 400.0 mg/kg/injection, schedule: Q01DX001 (ip), vehicle: saline with Tween-80 87 % of control

C#CCP(=O)(OCC)OCC
inactive: dose: 100.0 mg/kg/injection, schedule: Q01DX009 (ip), vehicle: saline 95 % of control | dose: 200.0 mg/kg/injection, schedule: Q01DX009 (ip), vehicle: saline 95 % of control | dose: 400.0 mg/kg/injection, schedule: Q01DX009 (ip), vehicle: saline 94 % of control

CCOC(=O)Nc1cc(Nc2ccccc2)c2[nH]cnc2n1
inactive: dose: 12.5 mg/kg/injection, schedule: Q01DX001 (ip), vehicle: Klucel (hydroxypropylcellulose) (HPC) 96 % of control | dose: 25.0 mg/kg/injection, schedule: Q01DX001 (ip), vehicle: Klucel (hydroxypropylcellulose) (HPC) 93 % of control | dose: 50.0 mg/kg/injection, schedule: Q01DX001 (ip), vehicle: Klucel (hydroxypropylcellulose) (HPC) 93 % of control | dose: 100.0 mg/kg/injection, schedule: Q01DX001 (ip), vehicle: Klucel (hydroxypropylcellulose) (HPC) 93 % of control | dose: 200.0 mg/kg/injection, schedule: Q01DX001 (ip), vehicle: Klucel (hydroxypropylcellulose) (HPC) 95 % of control | dose: 400.0 mg/kg/injection, schedule: Q01DX001 (ip), vehicle: Klucel (hydroxypropylcellulose) (HPC) 93 % of control

CCCCCCCCC(Sc1nn(C2OC(COC(=O)c3ccccc3)C(OC(=O)c3ccccc3)C2OC(=O)c2ccccc2)c(=O)[nH]c1=O)C(=O)OCC (stereo not drawn)
inactive: dose: 12.5 mg/kg/injection, schedule: Q01DX005 (ip), vehicle: distilled water + Tween-80 101 % of control | dose: 25.0 mg/kg/injection, schedule: Q01DX005 (ip), vehicle: distilled water + Tween-80 100 % of control | dose: 50.0 mg/kg/injection, schedule: Q01DX005 (ip), vehicle: distilled water + Tween-80 100 % of control | dose: 100.0 mg/kg/injection, schedule: Q01DX005 (ip), vehicle: distilled water + Tween-80 97 % of control | dose: 200.0 mg/kg/injection, schedule: Q01DX005 (ip), vehicle: distilled water + Tween-80 97 % of control

CCC1CCCCC1(O)CC (stereo not drawn)
inactive: [1] 106 % of control | [2] 103 % of control | [4] 103 % of control

C[n+]1c(-c2cccc(-c3ccccc3)c2)c2cc(N)ccc2c2ccccc21
inactive: dose: 0.78 mg/kg/injection, schedule: Q01DX009 (ip), vehicle: other 92 % of control | dose: 1.56 mg/kg/injection, schedule: Q01DX009 (ip), vehicle: other 92 % of control | dose: 3.13 mg/kg/injection, schedule: Q01DX009 (ip), vehicle: other 104 % of control | dose: 6.25 mg/kg/injection, schedule: Q01DX009 (ip), vehicle: other 108 % of control and 110 % of control

CC(C)(C)N1CCOCC1
inactive: [1] 100 % of control

CC#CC#CC(=O)c1ccccc1
inactive: dose: 5.0 mg/kg/injection, schedule: Q01DX001 (ip), vehicle: saline 97 % of control | dose: 10.0 mg/kg/injection, schedule: Q01DX001 (ip), vehicle: saline 100 % of control
